Measured values: paper PMC7154858, “Transcriptional and Biochemical Characterization of Cytosolic Pyruvate Kinases in Arabidopsis thaliana” (Plants, 2020)

Experiments:
Test in all cases: LDH-coupled assay, single effector concentration
Assay type in all cases: biochemical
cPK3 [1] = target: T1, cPK3 (Arabidopsis thaliana, UniProt Q9FFP6); conditions: 4000 µM; saturating ADP and PEP; 10 mM MgCl2, pH 7.5, 25 °C; allosteric inhibitor (stated)
T1 construct: gene MBK5.16; printed locus At5g56350 duplicates cPK2 (apparent misprint); primer begins MSNIDIE, unlike cPK2; full-length cDNA in pET16b, N-terminal His tag (6x/5x), E. coli BLR21, Ni-NTA
T1 sequence (Q9FFP6 1-510): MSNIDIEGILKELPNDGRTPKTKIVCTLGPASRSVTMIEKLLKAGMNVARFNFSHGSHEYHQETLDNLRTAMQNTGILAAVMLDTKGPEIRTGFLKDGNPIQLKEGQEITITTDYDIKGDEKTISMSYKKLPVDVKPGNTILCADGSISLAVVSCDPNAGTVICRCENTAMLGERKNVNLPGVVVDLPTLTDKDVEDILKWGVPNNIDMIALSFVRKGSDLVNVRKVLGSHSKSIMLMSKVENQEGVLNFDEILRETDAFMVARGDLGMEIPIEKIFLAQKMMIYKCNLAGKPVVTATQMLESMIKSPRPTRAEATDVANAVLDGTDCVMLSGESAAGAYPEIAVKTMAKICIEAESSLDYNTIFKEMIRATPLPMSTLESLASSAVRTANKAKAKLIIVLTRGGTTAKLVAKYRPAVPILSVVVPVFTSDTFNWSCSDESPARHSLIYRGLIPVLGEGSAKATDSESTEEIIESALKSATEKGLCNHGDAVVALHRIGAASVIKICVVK

cPK2 [2] = target: T2, cPK2 (Arabidopsis thaliana, UniProt Q9FM97); conditions: 4000 µM; saturating ADP and PEP; 10 mM MgCl2, pH 7.5, 25 °C; allosteric inhibitor (stated)
T2 construct: gene MCD7.8; full-length cDNA in pET16b, N-terminal His tag (6x in Results, 5x in Methods), E. coli BLR21, Ni-NTA; primer begins MAMIEQ
T2 sequence (Q9FM97 1-498): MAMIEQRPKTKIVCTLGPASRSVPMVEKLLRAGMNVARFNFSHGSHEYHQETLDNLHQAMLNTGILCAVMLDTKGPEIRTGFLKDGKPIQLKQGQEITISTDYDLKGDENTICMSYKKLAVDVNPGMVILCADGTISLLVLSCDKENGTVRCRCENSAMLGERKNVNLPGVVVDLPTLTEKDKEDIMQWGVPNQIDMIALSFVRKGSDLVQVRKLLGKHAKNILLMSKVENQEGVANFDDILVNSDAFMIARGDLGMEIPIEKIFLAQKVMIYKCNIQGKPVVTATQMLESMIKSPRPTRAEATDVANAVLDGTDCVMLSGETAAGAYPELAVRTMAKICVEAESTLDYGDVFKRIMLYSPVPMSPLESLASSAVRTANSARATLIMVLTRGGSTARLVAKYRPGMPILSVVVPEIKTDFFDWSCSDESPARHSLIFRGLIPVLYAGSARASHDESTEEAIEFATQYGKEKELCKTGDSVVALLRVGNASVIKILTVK

cPK4 = target: T3, cPK4 (Arabidopsis thaliana, UniProt Q9SJQ0); conditions: 4000 µM; saturating ADP and PEP; 10 mM MgCl2, pH 7.5, 25 °C; allosteric inhibitor (stated)
T3 construct: gene At2g36580; full-length cDNA in pET16b, N-terminal His tag (6x in Results, 5x in Methods), E. coli BLR21, Ni-NTA; primer begins MHSSHL
T3 sequence (Q9SJQ0 1-527): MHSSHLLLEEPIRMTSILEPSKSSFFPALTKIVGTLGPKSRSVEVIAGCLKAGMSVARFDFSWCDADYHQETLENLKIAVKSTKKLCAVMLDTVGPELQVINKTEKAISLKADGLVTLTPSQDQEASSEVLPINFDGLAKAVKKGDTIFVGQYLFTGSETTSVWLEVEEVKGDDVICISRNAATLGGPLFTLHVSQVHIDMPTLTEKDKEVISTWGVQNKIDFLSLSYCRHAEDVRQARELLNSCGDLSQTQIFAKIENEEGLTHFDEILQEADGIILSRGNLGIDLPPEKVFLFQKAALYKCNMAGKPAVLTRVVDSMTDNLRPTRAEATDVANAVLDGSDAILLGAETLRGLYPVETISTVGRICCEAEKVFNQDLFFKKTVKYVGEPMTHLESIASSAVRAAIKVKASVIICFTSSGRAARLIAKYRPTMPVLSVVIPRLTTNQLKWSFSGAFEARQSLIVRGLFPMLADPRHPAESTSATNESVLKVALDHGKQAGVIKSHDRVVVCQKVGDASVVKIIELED

cPK5 = target: T4, cPK5 (Arabidopsis thaliana, UniProt F4J867); conditions: 4000 µM; saturating ADP and PEP; 10 mM MgCl2, pH 7.5, 25 °C; allosteric inhibitor (stated)
T4 construct: gene At3g52990; full-length cDNA in pET16b, N-terminal His tag (6x in Results, 5x in Methods), E. coli BLR21, Ni-NTA; primer begins MHSSHL
T4 sequence (F4J867 1-527): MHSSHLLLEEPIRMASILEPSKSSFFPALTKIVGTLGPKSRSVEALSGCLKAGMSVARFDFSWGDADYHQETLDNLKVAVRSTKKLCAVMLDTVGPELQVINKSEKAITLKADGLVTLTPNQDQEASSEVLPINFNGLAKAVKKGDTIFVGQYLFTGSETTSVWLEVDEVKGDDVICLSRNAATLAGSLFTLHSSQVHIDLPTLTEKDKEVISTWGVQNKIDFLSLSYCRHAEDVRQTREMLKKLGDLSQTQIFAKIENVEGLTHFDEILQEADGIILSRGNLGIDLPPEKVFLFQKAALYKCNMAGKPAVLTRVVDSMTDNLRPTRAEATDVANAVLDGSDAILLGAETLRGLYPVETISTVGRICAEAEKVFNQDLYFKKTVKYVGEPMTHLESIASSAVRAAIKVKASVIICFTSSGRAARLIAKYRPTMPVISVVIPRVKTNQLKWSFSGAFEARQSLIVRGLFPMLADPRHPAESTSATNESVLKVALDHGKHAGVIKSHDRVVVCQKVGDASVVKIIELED

cPK1 [3] = target: T5, cPK1 (Arabidopsis thaliana, UniProt Q9FNN1); conditions: 4000 µM; saturating ADP and PEP; 10 mM MgCl2, pH 7.5, 25 °C; allosteric inhibitor (stated)
T5 construct: gene MAH20.13; full-length cDNA in pET16b, N-terminal His tag (6x in Results, 5x in Methods), E. coli BLR21, Ni-NTA; primer begins MSNIDIEG
T5 sequence (Q9FNN1 1-510): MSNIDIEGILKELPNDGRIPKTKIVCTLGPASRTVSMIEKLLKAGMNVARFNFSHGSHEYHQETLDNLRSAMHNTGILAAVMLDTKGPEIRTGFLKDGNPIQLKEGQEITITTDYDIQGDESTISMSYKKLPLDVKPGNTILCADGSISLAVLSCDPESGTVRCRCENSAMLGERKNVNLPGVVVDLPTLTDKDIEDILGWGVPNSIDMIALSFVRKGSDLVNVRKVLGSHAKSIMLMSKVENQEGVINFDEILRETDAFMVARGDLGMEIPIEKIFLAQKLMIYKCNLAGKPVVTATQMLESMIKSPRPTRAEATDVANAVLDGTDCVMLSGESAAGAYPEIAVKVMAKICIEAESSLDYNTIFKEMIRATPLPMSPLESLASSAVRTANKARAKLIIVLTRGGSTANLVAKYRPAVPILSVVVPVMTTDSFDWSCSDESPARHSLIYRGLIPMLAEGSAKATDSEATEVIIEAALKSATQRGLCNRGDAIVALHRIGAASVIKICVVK

cPK2 [4] = target: T2, cPK2; conditions: 2000 µM; saturating ADP and PEP; 10 mM MgCl2, pH 7.5, 25 °C; inhibitor (also reaction product)
cPK1 [5] = target: T5, cPK1; conditions: 2000 µM; saturating ADP and PEP; 10 mM MgCl2, pH 7.5, 25 °C; inhibitor (also reaction product)
cPK3 [6] = target: T1, cPK3; conditions: 2000 µM; saturating ADP and PEP; 10 mM MgCl2, pH 7.5, 25 °C; inhibitor (also reaction product)

Structure (SMILES): O=C(O)CC(O)(CC(=O)O)C(=O)O [citrate]
- Citrate (cPK3 [1]): 7%
- Citrate (cPK2 [2]): 26%
- Citrate (cPK4): 3%
- Citrate (cPK5): 2%
- Citrate (cPK1 [3]): 17%

Structure (SMILES): Nc1ncnc2c1ncn2[C@@H]1O[C@H](COP(=O)(O)OP(=O)(O)OP(=O)(O)O)[C@@H](O)[C@H]1O [ATP]
- ATP (cPK2 [4]): 76%
- ATP (cPK1 [5]): 7%
- ATP (cPK3 [6]): 27%
